Assay results: paper PMC9343874, “Comparative Pharmacokinetics of Cinobufacini Capsule and Injection by UPLC-MS/MS” (Frontiers in Pharmacology, 2022)
Where two headings read alike, the source gives them in different places.

How the values were obtained:
[1] = Stability of analytes in rat plasma QC samples under storage conditions; type: physicochemical; conditions: n = 6; for Stability during 24 h at 4°C, RE: post-treatment storage in autosampler; for −80°C for 30 days, RE / Three freeze–thaw cycles, RE: rat plasma; for −80°C for 30 days, RE: long-term; for Three freeze–thaw cycles, RE: −80°C to room temperature
Experimental: The stability of QC samples in six replicates at three concentrations (low, medium, and high levels) was analyzed under different storage conditions: the post-treatment stability was analyzed after storage in an autosampler (4°C) for 24 h. Freeze–thaw stability was investigated after three freeze–thaw cycles (−80°C to room temperature as one cycle). Long-term stability was assessed by analyzing QC samples kept at −80°C for 30 days. The concentrations of the analytes in the plasma samples and the QC samples were calculated by the calibration standard curve prepared each day. The stabilities of analytes were acceptable when the accuracy (RE, %) and precision (RSD, %) of all QC samples in all storage conditions were within ±15% compared to nominal concentrations.

[2] = Pharmacokinetic study in rats after oral administration of cinobufacini capsule (UPLC-MS/MS of plasma); type: in vivo, rat; conditions: male, Sprague-Dawley, in vivo, rat plasma, mean ± SD, n = 6; for CL/F: read-out: CLz/F (converted); for MRT last: read-out: MRT0-t; for MRT inf: read-out: MRT0-∞; for half-life: read-out: T1/2z (converted); for Vd/F: read-out: Vz/F
Experimental: Male Sprague–Dawley rats (weighing 200–220 g) of SPF grade were offered by Sippr/BK laboratory Animal, Corp., Ltd. (Shanghai, China) and fed in the Laboratory Animal Center of the Shanghai University of Traditional Chinese Medicine. All the rats were kept under environmentally controlled conditions with constant temperature (22–24°C) and humidity (60–65%). The animal experiment program in the present research was approved by the Animal Committee of the Shanghai University of Traditional Chinese Medicine (PZSHUTCM210618012).
An Agilent 1290 liquid chromatographic system includes a G4220A quaternary pump, a G1326C column incubator, a G4226A automatic sampler, and a G1330B degasser. The column temperature was set to 35°C. A measure of 5 µL of samples were separated in an Agilent SB-C18 column (2.1 mm ×50 mm, 1.8 μm) and eluted at 0.3 ml/min, followed by gradient elution with water (0.1% V/V formic acid) (A) and acetonitrile (B) (0–1 min, 20%–20% B; 1–3.5 min, 20%–80% B; 4–4.1 min, 80%-20% B; 4.1–6 min, 20% B). The total run time was 6 minutes.
An Agilent 1290 Infinity series UPLC system was combined with an Agilent 6460 series triple quadrupole mass spectrometer (Agilent Technologies, Santa Clara, CA, United States) to quantify all 13 analytes in an ESI-positive ionization mode. Quantitative analysis was performed in an MRM mode. The mass spectrum conditions were as follows: capillary voltage, 4000V; drying gas (N2), gas flow rate: 10 L/min; sprayer, 30 psi; gas temperature 350°C; The delta EMV (+) 200 V; collision gas (N2); dwell time, 25 ms. Agilent’s MassHunter Workstation software was used for data collection, peak area calculation, and quantitative analysis.
A measure of 50 µL of the plasma sample was mixed with 10 µL of the internal standard solution (345 ng/ml) in a 1.5-ml centrifuge tube and vortexed for 5 min. The samples were extracted by 500 µL of ethyl acetate for 5 min and centrifuged at 4°C for 10 min (18000 rpm). All the supernatants were collected into another 1.5-ml centrifuge tube, dried under a gentle stream of nitrogen at 37°C, and then added with 50 µL of 80% methanol for resolution. The resolution samples were centrifuged at 4°C for 10 min (18000 rpm), and 5 µL supernatant was extracted and injected for analysis.
Twenty-four male Sprague–Dawley rats (weigh 200–220 g) were divided into four groups with six rats in each group randomly, including three capsule groups at three different doses and one injection group. In the instructions for cinobufacini capsule and injection, the clinical dosage for adults is 2 g per 70 kg orally and 20 ml per 70 kg intravenously, converting to rat doses of 180 mg/kg and 1.8 ml/kg, respectively.
In the pre-experiments, we compared cinobufacini capsule of 180 mg/kg (one-time clinical dose) and 900 mg/kg (five times of clinical dose) and Cinobufacini injection of 1.8 ml/kg, but concentrations of some compounds in plasma were too low and difficult to be quantified. […] The experimental rats were led to fast the night and were free to get access to water for 12 h before the pharmacokinetic study. After administration, blood samples (approximately 150 μL) of rats were collected via retro-orbital sinus into heparinized centrifuge tubes at 0.05, 0.083, 0.25, 0.5, 0.75, 1, 2, 4, 6, 8, and 10 h. After centrifugation at 5,000 rpm for 10 min, the plasma was transferred to 1.5-ml polypropylene tubes and stored at −80°C until UPLC-MS/MS analysis.
GraphPad Prism software (version 8.0.2) was used to draw the mean plasma concentration–time curves of all analytes. The pharmacokinetic parameters were calculated by DAS 3.2.8 software. Meanwhile, the pharmacokinetic data on rats were presented as mean ± standard deviation (SD). Differences of pharmacokinetic parameters between groups were analyzed by the t-test using SPSS software (version 26.0). Differences were considered significant statistically when the p-values were <0.05 and very significant statistically when the p-values were <0.01.

[3] = high QC level (249.58–250.28 ng/ml)
[4] = medium QC level (49.92–50.06 ng/ml)
[5] = oral cinobufacini capsule 0.9 g/kg (low)
[6] = oral cinobufacini capsule 1.8 g/kg (medium)
[7] = oral cinobufacini capsule 3.6 g/kg (high)

C[C@]12CC[C@H](O)C[C@@]1(O)CC[C@@H]1[C@@H]2CC[C@]2(C)[C@@H](c3ccc(=O)oc3)CC[C@]12O [TCG, telocinobufagin]
Stability during 24 h at 4°C, RE [1, 3]: −4.7% | Stability during 24 h at 4°C, RE ([1]; low QC level (4.99–5.00 ng/ml)): −0.3% | Stability during 24 h at 4°C, RE [1, 4]: −4.2% | −80°C for 30 days, RE [1, 3]: −2.1% | −80°C for 30 days, RE ([1]; low QC level (4.99–5.00 ng/ml)): 0.9% | −80°C for 30 days, RE [1, 4]: 3.8% | Three freeze–thaw cycles, RE [1, 3]: -6.6% | Three freeze–thaw cycles, RE ([1]; low QC level (4.99–5.00 ng/ml)): 5.8% | Three freeze–thaw cycles, RE [1, 4]: 0.0% | AUC(0-inf) [2, 5]: 24.5 ± 10.3 ng·h/mL | AUC(0-t) [2, 5]: 24.5 ± 10.3 ng·h/mL | Cmax [2, 5]: 35.2 ± 21 ng/mL | Tmax [2, 5]: 21.6 ± 12 min | CL/F [2, 5]: 128 mL/min/kg | MRT last [2, 5]: 38.4 ± 3.6 min | MRT inf [2, 5]: 38.4 ± 3.6 min | half-life [2, 5]: 9.6 ± 0.6 min | Vd/F [2, 5]: 1.75 ± 0.6 L/kg | AUC(0-inf) [2, 6]: 89.9 ± 24.1 ng·h/mL | AUC(0-t) [2, 6]: 89.7 ± 23.8 ng·h/mL | Cmax [2, 6]: 109 ± 41.3 ng/mL | Tmax [2, 6]: 17.4 ± 5.4 min | CL/F [2, 6]: 66.2 mL/min/kg | MRT last [2, 6]: 43.8 ± 6.6 min | MRT inf [2, 6]: 44.4 ± 6.6 min | half-life [2, 6]: 12.6 ± 6.6 min | Vd/F [2, 6]: 1.13 ± 0.37 L/kg | AUC(0-inf) [2, 7]: 217 ± 82.4 ng·h/mL | AUC(0-t) [2, 7]: 217 ± 82.4 ng·h/mL | Cmax [2, 7]: 253 ± 83.8 ng/mL | Tmax [2, 7]: 19.2 ± 7.2 min | CL/F [2, 7]: 60.3 mL/min/kg | MRT last [2, 7]: 49.8 ± 7.8 min | MRT inf [2, 7]: 49.8 ± 7.8 min | half-life [2, 7]: 31.8 ± 1.2 min | Vd/F [2, 7]: 2.76 ± 1.67 L/kg
